Data on two compounds can be found in article PMC10281575, “PfCRT mutations conferring piperaquine resistance in falciparum malaria shape the kinetics of quinoline drug binding and transport” (PLOS Pathogens, 2023).

One assay has as its target T1, PfCRT^Dd2_G353V (Plasmodium falciparum, UniProt Q8IBZ9, A220S/G353V/I356T/K76T/M74I/N326S/N75E/Q271E/R371I).
T1 construct: expressed in transfected cells; host or cells: Xenopus laevis oocytes injected with in vitro transcribed RNA (pSP64T)
T1 sequence (Q8IBZ9 1-424 M74I/N75E/K76T/A220S/Q271E/N326S/G353V/I356T/R371I): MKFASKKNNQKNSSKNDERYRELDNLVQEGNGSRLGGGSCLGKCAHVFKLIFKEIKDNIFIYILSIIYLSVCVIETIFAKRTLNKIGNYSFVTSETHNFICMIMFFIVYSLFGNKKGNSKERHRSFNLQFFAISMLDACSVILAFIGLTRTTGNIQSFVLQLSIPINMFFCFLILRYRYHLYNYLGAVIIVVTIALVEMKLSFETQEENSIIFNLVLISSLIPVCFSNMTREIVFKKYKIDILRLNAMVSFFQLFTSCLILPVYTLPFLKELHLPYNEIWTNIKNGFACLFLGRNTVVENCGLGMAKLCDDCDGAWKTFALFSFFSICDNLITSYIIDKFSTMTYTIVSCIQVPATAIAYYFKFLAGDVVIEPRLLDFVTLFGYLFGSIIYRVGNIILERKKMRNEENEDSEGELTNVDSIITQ
The assay is described as follows: Radiolabeled drug uptake in X. laevis oocytes expressing PfCRT^Dd2_G353V. The assay is classed as cell-based. From the text:
A codon-optimized coding sequence of the Dd2 isoform of PfCRT (PfCRT^Dd2) was subcloned into the pSP64T expression vector [21]. To generate the necessary mutations to introduce the amino acid substitutions H97Y, F145I, M343L or G353V into the pfcrt sequence, the overlap extension method was used. A region from the 5’-untranslated Xenopus β-globin sequence to the respective 3’ region, containing the full length pfcrt coding sequence, was amplified using the following primer pairs: for the H97Y mutation, numbers 1/4 and 2/3; for the F145I mutation, numbers 1/6 and 2/5; for the M343L mutation, numbers 1/8 and 2/7; and for the G353V mutation, numbers 1/10 and 2/9 (for primers, see S2 Table). Both PCR products were used as template for amplification of the final product using primers number 1/2. The resulting fragment was cloned into the pSP64T expression vector, and the presence of the desired mutation was confirmed by sequencing.
(§1) Adult female X. laevis frogs (purchased from NASCO) were anesthetized by submersion in a solution of 0.3% (w/v) 3-amino benzoate methanesulfonate for 15 min. Sections of the ovary were surgically removed and placed in Ca^2+-free ND96 buffer supplemented with 0.1% collagenase D (w/v; Roche), 0.5% BSA (w/v) and 9 mM Na2HPO4 at 18°C for 14–16 h while gently shaking. The oocytes were then washed several times with ND96 buffer (5 mM HEPES, pH 7.5, 96 mM NaCl, 2 mM KCl, 1.8 mM CaCl2, 1 mM MgCl2), supplemented with […] gentamycin. Healthy-looking stage V-VI oocytes were manually selected and randomly grouped for injection. A codon-optimized coding sequence of PfCRT was subcloned into the pSP64T expression vector and subsequently linearized using the restriction endonuclease BamHI or SalI (New England Biolabs GmbH). RNA for injection was transcribed in vitro using the mMESSAGE mMACHINE SP6 Transcription kit (Ambion), diluted with nuclease-free water to a final concentration of 0.6 μg/μL and stored at -80°C. RNA was injected using precision-bore glass capillary tubes (3.5-inch glass capillaries; Drummond Scientific Co.), which were pulled on a vertical puller (P-87 Flaming/Brown micropipette puller, Sutter Instrument Co.) and graduated. The micropipettes were connected to a microinjector (Nanoject II Auto-Nanoliter Injector, Drummond Scientific Co.). Injection was conducted under stereomicroscopic control. 50 nL of nuclease-free water alone (control oocytes) or 50 nL of nuclease-free water containing 30 ng of RNA was injected per oocyte. Injected oocytes were kept for 72 h at 18°C in ND96 buffer with two daily buffer changes before being used for further experiments.
(§2) Drug transport assays were performed as previously described. Briefly, measurements of radiolabeled drug uptake were made over 1 h, unless otherwise specified. […] Where specified, one or more unlabeled drugs were also present at the indicated concentrations. […] The uptake assays were terminated by removing the oocytes from the reaction medium and washing them three times with 2 mL of ice-cold ND96 buffer. Each oocyte was transferred to a separate scintillation vial and lysed by the addition of 200 μL of a 5% SDS solution. The radioactivity in the sample was measured using a liquid scintillation analyser Tri-Carb 4910 TR (PerkinElmer). Water-injected oocytes were analyzed in parallel as a negative control. The buffer from each condition was measured in duplicate in parallel to each experiment to transform counts per minute into pmol of drug. Drug uptake attributable to PfCRT was determined by subtracting the background uptake from water-injected oocytes from that of PfCRT-expressing oocytes. In all cases, at least three independent experiments were performed on oocytes from different frogs, and for each condition in an experiment, measurements were made from 10 oocytes per treatment.

The target in another assay is T2, PfCRT^Dd2_H97Y_F145I (Plasmodium falciparum, UniProt Q8IBZ9, A220S/F145I/H97Y/I356T/K76T/M74I/N326S/N75E/Q271E/R371I).
T2 construct: expressed in transfected cells; host or cells: Xenopus laevis oocytes injected with in vitro transcribed RNA
T2 sequence (Q8IBZ9 1-424 M74I/N75E/K76T/H97Y/F145I/A220S/Q271E/N326S/I356T/R371I): T1 sequence (Q8IBZ9 1-424 M74I/N75E/K76T/A220S/Q271E/N326S/G353V/I356T/R371I) with H97Y, F145I, V353G
Description: Radiolabeled drug uptake in X. laevis oocytes expressing PfCRT^Dd2_H97Y_F145I. The assay is classed as cell-based. The conditions noted are these: for PfCRTDd2_H97Y_F145I-mediated CQ transport / PfCRTDd2_H97Y_F145I-mediated PPQ transport: individual replicates (Fig 11); for Hc, Hill coefficient / Vmax, maximal velocity of drug transport / Km: Hill equation fit, 10-500 μM drug, pH 6; for Km: read-out: KM, Michaelis constant. The procedure: as §1, §2

Structures are written as SMILES. Changes are numbered by the printed parent chain. Several values for one entry are separate records, joined by “and”; a condition that tells them apart may be missing. Identical values can stand only once.

The term Km denotes the substrate concentration at which the rate is half of its maximum. In the case of `CCN(CC)CCCC(C)Nc1ccnc2cc(Cl)ccc12` (centres unmarked) [CQ, chloroquine], on PfCRT^Dd2_G353V (10 µM CQ, single replicates), the “PfCRTDd2_G353V-mediated CQ uptake at 10 µM CQ” value was 0.74 pmol oocyte-1 h-1 and 0.50 pmol oocyte-1 h-1 and 0.07 pmol oocyte-1 h-1. For the same compound, on PfCRT^Dd2_G353V (50 µM CQ, single replicates), the “PfCRTDd2_G353V-mediated CQ uptake at 50 µM CQ” value is 4.74 pmol oocyte-1 h-1 and 5.01 pmol oocyte-1 h-1 and 2.88 pmol oocyte-1 h-1 and 3.92 pmol oocyte-1 h-1 and 4.76 pmol oocyte-1 h-1. The “PfCRTDd2_G353V-mediated CQ uptake at 100 µM CQ” value on PfCRT^Dd2_G353V (100 µM CQ, single replicates) is 7.26 pmol oocyte-1 h-1 and 6.49 pmol oocyte-1 h-1 and 5.26 pmol oocyte-1 h-1. The “PfCRTDd2_G353V-mediated CQ uptake at 300 µM CQ” value on PfCRT^Dd2_G353V (300 µM CQ, single replicates) is 16.30 pmol oocyte-1 h-1 and 8.52 pmol oocyte-1 h-1 and 8.09 pmol oocyte-1 h-1. On PfCRT^Dd2_G353V (500 µM CQ, single replicates), the “PfCRTDd2_G353V-mediated CQ uptake at 500 µM CQ” value is 17.15 pmol oocyte-1 h-1 and 14.95 pmol oocyte-1 h-1 and 14.10 pmol oocyte-1 h-1. Besides, the “Vmax, maximal velocity of drug transport” value on PfCRT^Dd2_G353V (Michaelis-Menten fit, 10-500 μM drug, pH 6) was 23 ± 3 pmol oocyte^-1 h^-1; on PfCRT^Dd2_H97Y_F145I, 35 ± 1 pmol oocyte^-1 h^-1 and 35 ± 4 pmol oocyte^-1 h^-1. Also, the “PfCRTDd2_H97Y_F145I-mediated CQ transport” value was 0.56 pmol oocyte-1 h-1 and 0.57 pmol oocyte-1 h-1 and 0.94 pmol oocyte-1 h-1 at PfCRT^Dd2_H97Y_F145I (10 µM CQ); 1.87 pmol oocyte-1 h-1 and 2.38 pmol oocyte-1 h-1 and 2.20 pmol oocyte-1 h-1 and 4.15 pmol oocyte-1 h-1 at PfCRT^Dd2_H97Y_F145I (50 µM CQ); 6.01 pmol oocyte-1 h-1 and 3.76 pmol oocyte-1 h-1 and 7.81 pmol oocyte-1 h-1 and 7.54 pmol oocyte-1 h-1 and 7.03 pmol oocyte-1 h-1 on PfCRT^Dd2_H97Y_F145I (100 µM CQ); 12.93 pmol oocyte-1 h-1 and 22.31 pmol oocyte-1 h-1 and 9.72 pmol oocyte-1 h-1 and 19.44 pmol oocyte-1 h-1 and 15.86 pmol oocyte-1 h-1 at PfCRT^Dd2_H97Y_F145I (200 µM CQ); 22.26 pmol oocyte-1 h-1 and 28.62 pmol oocyte-1 h-1 and 11.32 pmol oocyte-1 h-1 and 17.61 pmol oocyte-1 h-1 on PfCRT^Dd2_H97Y_F145I (300 µM CQ); 20.46 pmol oocyte-1 h-1 and 24.94 pmol oocyte-1 h-1 and 27.66 pmol oocyte-1 h-1 at PfCRT^Dd2_H97Y_F145I (400 µM CQ). Also, the “PfCRTDd2_H97Y_F145I-mediated CQ transport” value at PfCRT^Dd2_H97Y_F145I (500 µM CQ) is 23.29 pmol oocyte-1 h-1 and 35.24 pmol oocyte-1 h-1 and 26.54 pmol oocyte-1 h-1 and 24.00 pmol oocyte-1 h-1. Besides, on PfCRT^Dd2_H97Y_F145I, the “Hc, Hill coefficient” value was determined as 1.6 ± 0.2. The Km on PfCRT^Dd2_H97Y_F145I was determined as 240 ± 40 µM.
Regarding `Clc1ccc2c(N3CCN(CCCN4CCN(c5ccnc6cc(Cl)ccc56)CC4)CC3)ccnc2c1` [PPQ, piperaquine], the “PfCRTDd2_G353V-mediated PPQ uptake at 10 µM PPQ” value on PfCRT^Dd2_G353V (10 µM PPQ, single replicates) is 5.31 pmol oocyte-1 h-1 and 5.17 pmol oocyte-1 h-1 and 3.93 pmol oocyte-1 h-1. Besides, on PfCRT^Dd2_G353V (50 µM PPQ, single replicates), the “PfCRTDd2_G353V-mediated PPQ uptake at 50 µM PPQ” value was 29.38 pmol oocyte-1 h-1 and 45.38 pmol oocyte-1 h-1 and 21.36 pmol oocyte-1 h-1 and 40.00 pmol oocyte-1 h-1 and 56.34 pmol oocyte-1 h-1 and 56.46 pmol oocyte-1 h-1 and 95.52 pmol oocyte-1 h-1 and 62.83 pmol oocyte-1 h-1. On PfCRT^Dd2_G353V (100 µM PPQ, single replicates), the “PfCRTDd2_G353V-mediated PPQ uptake at 100 µM PPQ” value was 105.67 pmol oocyte-1 h-1 and 52.72 pmol oocyte-1 h-1 and 63.14 pmol oocyte-1 h-1. Also, the “PfCRTDd2_G353V-mediated PPQ uptake at 300 µM PPQ” value at PfCRT^Dd2_G353V (300 µM PPQ, single replicates) was 116.72 pmol oocyte-1 h-1 and 65.87 pmol oocyte-1 h-1 and 109.27 pmol oocyte-1 h-1. The “PfCRTDd2_G353V-mediated PPQ uptake at 500 µM PPQ” value on PfCRT^Dd2_G353V (500 µM PPQ, single replicates) is 126.72 pmol oocyte-1 h-1 and 99.20 pmol oocyte-1 h-1 and 126.01 pmol oocyte-1 h-1. For the same compound, the Km came out at 90 ± 20 µM on PfCRT^Dd2_G353V (Michaelis-Menten fit, 10-500 μM drug, pH 6, read-out: KM, Michaelis constant) and 170 ± 20 µM at PfCRT^Dd2_H97Y_F145I. The “PfCRTDd2_H97Y_F145I-mediated PPQ transport” value at PfCRT^Dd2_H97Y_F145I (10 µM PPQ) is 4.45 pmol oocyte-1 h-1 and 2.50 pmol oocyte-1 h-1 and 6.51 pmol oocyte-1 h-1; on PfCRT^Dd2_H97Y_F145I (50 µM PPQ) it was 12.64 pmol oocyte-1 h-1 and 8.74 pmol oocyte-1 h-1 and 25.96 pmol oocyte-1 h-1 and 14.99 pmol oocyte-1 h-1 and 20.94 pmol oocyte-1 h-1; on PfCRT^Dd2_H97Y_F145I (100 µM PPQ) it was 28.86 pmol oocyte-1 h-1 and 38.51 pmol oocyte-1 h-1 and 10.62 pmol oocyte-1 h-1 and 34.53 pmol oocyte-1 h-1; on PfCRT^Dd2_H97Y_F145I (200 µM PPQ), 112.27 pmol oocyte-1 h-1 and 50.98 pmol oocyte-1 h-1 and 60.86 pmol oocyte-1 h-1 and 71.21 pmol oocyte-1 h-1 and 85.02 pmol oocyte-1 h-1; at PfCRT^Dd2_H97Y_F145I (300 µM PPQ) it was 111.40 pmol oocyte-1 h-1 and 72.67 pmol oocyte-1 h-1 and 112.81 pmol oocyte-1 h-1 and 115.57 pmol oocyte-1 h-1; on PfCRT^Dd2_H97Y_F145I (400 µM PPQ), 94.84 pmol oocyte-1 h-1 and 111.83 pmol oocyte-1 h-1 and 131.05 pmol oocyte-1 h-1. Also, the “PfCRTDd2_H97Y_F145I-mediated PPQ transport” value at PfCRT^Dd2_H97Y_F145I (500 µM PPQ) is 81.84 pmol oocyte-1 h-1 and 171.24 pmol oocyte-1 h-1 and 123.65 pmol oocyte-1 h-1 and 87.38 pmol oocyte-1 h-1. Further, the “Hc, Hill coefficient” value on PfCRT^Dd2_H97Y_F145I is listed as 2.0 ± 0.3. On PfCRT^Dd2_H97Y_F145I, the “Vmax, maximal velocity of drug transport” value was 131 ± 3 pmol oocyte^-1 h^-1 and 131 ± 10 pmol oocyte^-1 h^-1.
